Measured values taken from PMC4581874 (PLoS ONE, 2015).

How the values were obtained:
EGFR = EGFR (Homo sapiens, UniProt P00533); test: In vitro kinase assay, EGFR; assay type: biochemical
Description: All kinase assays were carried out using KinaseProfiler^TM and IC50 Profiler^TM (Millipore UK Ltd., Dundee, UK. Now Eurofins Scientific, Dundee, UK). All IC50 data were presented as the mean values.

EGFR (L858R) = molecular target: T1, EGFR (L858R) (Homo sapiens, UniProt P00533, L858R); test: In vitro kinase assay, EGFR (L858R); assay type: biochemical
T1 construct: purchased Millipore UK Ltd., Dundee, UK (now Eurofins Scientific); KinaseProfiler / IC50 Profiler service
Description: (§1) All kinase assays were carried out using KinaseProfiler^TM and IC50 Profiler^TM (Millipore UK Ltd., Dundee, UK. Now Eurofins Scientific, Dundee, UK). All IC50 data were presented as the mean values. The Curves obtained to determine IC50 values were shown in Supporting Information (S1 Fig).

VEGFR-3 = molecular target: T2, VEGFR-3 (Homo sapiens, UniProt P35916); test: In vitro kinase assay, VEGFR-3; assay type: biochemical
T2 construct: purchased Millipore UK Ltd., Dundee, UK (now Eurofins Scientific); KinaseProfiler / IC50 Profiler service
Description: as §1

CDK1/cyclin B (h) = molecular target: T3, CDK1/cyclin B (h) (Homo sapiens, UniProt P06493); test: Kinase profile, CDK1/cyclin B; assay type: biochemical; conditions: mean ± S.D.
T3 construct: purchased Millipore (now Eurofins) KinaseProfiler / IC50 Profiler
Description: as §1

CDK2/cyclin A (h) = molecular target: T4, CDK2/cyclin A (h) (Homo sapiens, UniProt P24941); test: Kinase profile, CDK2/cyclin A; assay type: biochemical; conditions: mean ± S.D.
T4 construct: purchased Millipore (now Eurofins) KinaseProfiler / IC50 Profiler
Description: as §1

CDK7/cyclin H/MAT1 (h) = molecular target: T5, CDK7/cyclin H/MAT1 (h) (Homo sapiens, UniProt P50613); test: Kinase profile, CDK7/cyclin H/MAT1; assay type: biochemical; conditions: mean ± S.D.
T5 construct: purchased Millipore (now Eurofins) KinaseProfiler / IC50 Profiler
Description: as §1

IR (h) = molecular target: T6, IR (h) (Homo sapiens, UniProt P06213); test: Kinase profile, IR; assay type: biochemical; conditions: mean ± S.D.
T6 construct: purchased Millipore (now Eurofins) KinaseProfiler / IC50 Profiler
Description: as §1

LKB1 (h) = molecular target: T7, LKB1 (h) (Homo sapiens, UniProt Q15831); test: Kinase profile, LKB1; assay type: biochemical; conditions: mean ± S.D.
T7 construct: purchased Millipore (now Eurofins) KinaseProfiler / IC50 Profiler
Description: as §1

PKCε (h) = molecular target: T8, PKCε (h) (Homo sapiens, UniProt Q02156); test: Kinase profile, PKCε; assay type: biochemical; conditions: mean ± S.D.
T8 construct: purchased Millipore (now Eurofins) KinaseProfiler / IC50 Profiler
Description: as §1

PKCι (h) = molecular target: T9, PKCι (h) (Homo sapiens, UniProt P41743); test: Kinase profile, PKCι; assay type: biochemical; conditions: mean ± S.D.
T9 construct: purchased Millipore (now Eurofins) KinaseProfiler / IC50 Profiler
Description: as §1

PKCζ (h) = molecular target: T10, PKCζ (h) (Homo sapiens, UniProt Q05513); test: Kinase profile, PKCζ; assay type: biochemical; conditions: mean ± S.D.
T10 construct: purchased Millipore (now Eurofins) KinaseProfiler / IC50 Profiler
Description: as §1

PKG1α (h) = molecular target: T11, PKG1α (h) (Homo sapiens, UniProt Q13976); test: Kinase profile, PKG1α; assay type: biochemical; conditions: mean ± S.D.
T11 construct: purchased Millipore (now Eurofins) KinaseProfiler / IC50 Profiler
Description: as §1

PKG1β (h) = molecular target: T12, PKG1β (h) (Homo sapiens, UniProt Q13976); test: Kinase profile, PKG1β; assay type: biochemical; conditions: mean ± S.D.
T12 construct: purchased Millipore (now Eurofins) KinaseProfiler / IC50 Profiler
Description: as §1

ROCK-II (h) = molecular target: T13, ROCK-II (h) (Homo sapiens, UniProt O75116); test: Kinase profile, ROCK-II; assay type: biochemical; conditions: mean ± S.D.
T13 construct: purchased Millipore (now Eurofins) KinaseProfiler / IC50 Profiler
Description: as §1

HUVECs [1] = test: HUVEC viability assay (cytotoxicity); assay type: cell-based, human; conditions: 24 hours
Description: HCC827 cells were purchased from the American Type Culture Collection (ATCC, Manassas, VA, USA). Cells were grown in RPMI 1640 (Welgene Inc., Daegu, Republic of Korea) supplemented with 10% fetal bovine serum (FBS) (Welgene Inc.) and 1% penicillin-streptomycin (Gibco®, Life Technologies, Carlsbad, CA, USA) in a humidified 5% CO2 atmosphere at 37°C. Human umbilical vein endothelial cells (HUVECs, ScienCell Research Laboratories, Carlsbad, CA, USA) were cultured in endothelial growth medium-2 (EGM-2; Lonza, Walkersville, MD, USA) from passages 3 to 6.
For the HUVEC viability assay, HUVECs were treated with phosphate-buffered saline (PBS) or the indicated concentrations of VEGF inhibitors in EGM-2 medium for 24 hours. After the cells were washed with PBS, they were counted using an inverted light microscope (Nikon Eclipse Ti-U; Nikon Corp., Tokyo, Japan) in 5 random fields from each well.

HUVECs [2] = test: VEGF-induced tube formation assay; assay type: cell-based, human; conditions: VEGF 50 ng/mL, compound 1 μg/mL
Description: For analyzing of the antagonistic response to VEGF, tube formation, scratch wound migration, and cell proliferation assays were performed after the exposure of HUVECs to 50 ng/mL VEGF-A (R&D Systems, Minneapolis, MN), which induced a significant angiogenic response. For the cell proliferation assays, cells were incubated overnight in endothelial basal media (EBM; Lonza, Walkersville, MD, USA) containing 0.5% FBS or supplemented with VEGF-A and/or VEGF inhibitors. The cells were washed with PBS and counted in 4 random microscope fields. The tube formation assay was performed by seeding cells on Matrigel-coated plates (BD Bioscience, Bedford, MA, USA) and incubating in EBM containing 0.5% FBS or supplemented with VEGF-A and/or VEGF inhibitors. After overnight incubation, tubule networks were quantified by measuring the tubule length in 4 random microscope fields. For the analysis of scratch wound migration, confluent cell monolayers grown on 6-well plates were scratched using a micropipette tip. […] Cell migration was observed by optical microscopy and quantified by measuring the number of cells that had migrated from the wound edges.
In (A) and (B), the number of cells was expressed as the fold change with respect to the number of cells seeded at day 0. […]

[3] = in vitro kinase assay, mean values

T2 sequence (P35916 25-1363): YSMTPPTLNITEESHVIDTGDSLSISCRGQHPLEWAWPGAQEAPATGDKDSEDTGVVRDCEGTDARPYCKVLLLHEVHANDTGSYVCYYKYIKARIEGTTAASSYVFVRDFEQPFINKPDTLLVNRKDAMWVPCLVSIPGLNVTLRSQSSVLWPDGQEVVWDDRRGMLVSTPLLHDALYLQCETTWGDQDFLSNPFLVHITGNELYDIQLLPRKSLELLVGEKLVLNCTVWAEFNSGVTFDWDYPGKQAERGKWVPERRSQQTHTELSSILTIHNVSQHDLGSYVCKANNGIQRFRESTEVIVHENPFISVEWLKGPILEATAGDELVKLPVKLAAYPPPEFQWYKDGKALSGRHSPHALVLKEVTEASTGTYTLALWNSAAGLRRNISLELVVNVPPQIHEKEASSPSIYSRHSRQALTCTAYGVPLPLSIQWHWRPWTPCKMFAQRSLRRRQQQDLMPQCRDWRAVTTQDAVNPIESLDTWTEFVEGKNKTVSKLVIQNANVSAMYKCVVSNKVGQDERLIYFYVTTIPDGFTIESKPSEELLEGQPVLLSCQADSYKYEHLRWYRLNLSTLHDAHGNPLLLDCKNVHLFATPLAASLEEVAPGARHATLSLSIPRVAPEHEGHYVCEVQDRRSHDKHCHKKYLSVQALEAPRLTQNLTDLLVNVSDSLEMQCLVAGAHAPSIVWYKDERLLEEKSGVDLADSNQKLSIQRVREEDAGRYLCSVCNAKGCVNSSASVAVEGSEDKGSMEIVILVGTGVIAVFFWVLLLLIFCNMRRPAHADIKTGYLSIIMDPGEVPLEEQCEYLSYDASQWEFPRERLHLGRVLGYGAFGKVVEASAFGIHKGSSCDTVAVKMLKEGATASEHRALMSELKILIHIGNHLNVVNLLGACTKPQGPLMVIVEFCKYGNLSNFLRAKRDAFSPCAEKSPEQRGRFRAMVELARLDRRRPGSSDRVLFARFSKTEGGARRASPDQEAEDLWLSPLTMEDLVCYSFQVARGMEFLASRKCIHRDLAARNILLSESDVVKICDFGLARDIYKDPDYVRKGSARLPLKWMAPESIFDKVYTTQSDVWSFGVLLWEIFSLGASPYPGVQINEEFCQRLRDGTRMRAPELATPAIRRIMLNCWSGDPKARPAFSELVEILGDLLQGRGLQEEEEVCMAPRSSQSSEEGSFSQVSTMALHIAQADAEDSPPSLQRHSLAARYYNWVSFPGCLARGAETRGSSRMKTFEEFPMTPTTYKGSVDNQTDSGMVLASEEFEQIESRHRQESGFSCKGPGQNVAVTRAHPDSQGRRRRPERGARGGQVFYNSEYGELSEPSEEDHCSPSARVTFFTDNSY
T1 sequence (P00533 25-1210 L858R): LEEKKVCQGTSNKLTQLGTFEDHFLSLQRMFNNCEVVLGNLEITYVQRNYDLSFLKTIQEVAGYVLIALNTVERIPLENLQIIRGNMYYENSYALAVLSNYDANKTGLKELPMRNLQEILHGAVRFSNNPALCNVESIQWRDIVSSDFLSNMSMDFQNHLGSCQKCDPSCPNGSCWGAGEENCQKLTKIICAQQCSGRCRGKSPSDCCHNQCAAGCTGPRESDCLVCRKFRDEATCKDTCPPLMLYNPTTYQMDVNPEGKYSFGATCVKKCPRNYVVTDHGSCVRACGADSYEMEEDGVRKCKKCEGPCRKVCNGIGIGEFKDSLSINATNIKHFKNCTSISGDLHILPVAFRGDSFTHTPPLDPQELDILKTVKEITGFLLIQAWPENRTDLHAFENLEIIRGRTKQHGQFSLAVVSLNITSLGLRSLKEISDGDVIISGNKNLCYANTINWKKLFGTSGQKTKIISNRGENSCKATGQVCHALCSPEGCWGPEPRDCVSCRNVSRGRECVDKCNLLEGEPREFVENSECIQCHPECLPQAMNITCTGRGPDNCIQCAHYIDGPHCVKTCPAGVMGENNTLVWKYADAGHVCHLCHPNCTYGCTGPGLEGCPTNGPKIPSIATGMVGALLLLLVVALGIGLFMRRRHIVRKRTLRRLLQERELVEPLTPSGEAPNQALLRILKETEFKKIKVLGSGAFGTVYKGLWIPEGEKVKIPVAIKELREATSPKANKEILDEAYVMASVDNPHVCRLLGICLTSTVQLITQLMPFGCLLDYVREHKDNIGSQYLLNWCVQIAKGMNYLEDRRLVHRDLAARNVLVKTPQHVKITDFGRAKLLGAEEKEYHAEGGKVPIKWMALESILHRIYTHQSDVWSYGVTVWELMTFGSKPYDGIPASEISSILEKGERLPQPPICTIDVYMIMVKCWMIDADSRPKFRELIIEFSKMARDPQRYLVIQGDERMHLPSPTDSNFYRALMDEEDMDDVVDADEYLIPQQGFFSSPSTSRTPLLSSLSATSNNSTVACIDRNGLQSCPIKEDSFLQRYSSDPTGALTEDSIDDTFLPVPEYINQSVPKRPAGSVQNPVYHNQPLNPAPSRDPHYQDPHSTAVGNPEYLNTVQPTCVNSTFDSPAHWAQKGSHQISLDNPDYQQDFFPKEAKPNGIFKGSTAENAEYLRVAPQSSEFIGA
Sequence of EGFR (P00533 25-1210): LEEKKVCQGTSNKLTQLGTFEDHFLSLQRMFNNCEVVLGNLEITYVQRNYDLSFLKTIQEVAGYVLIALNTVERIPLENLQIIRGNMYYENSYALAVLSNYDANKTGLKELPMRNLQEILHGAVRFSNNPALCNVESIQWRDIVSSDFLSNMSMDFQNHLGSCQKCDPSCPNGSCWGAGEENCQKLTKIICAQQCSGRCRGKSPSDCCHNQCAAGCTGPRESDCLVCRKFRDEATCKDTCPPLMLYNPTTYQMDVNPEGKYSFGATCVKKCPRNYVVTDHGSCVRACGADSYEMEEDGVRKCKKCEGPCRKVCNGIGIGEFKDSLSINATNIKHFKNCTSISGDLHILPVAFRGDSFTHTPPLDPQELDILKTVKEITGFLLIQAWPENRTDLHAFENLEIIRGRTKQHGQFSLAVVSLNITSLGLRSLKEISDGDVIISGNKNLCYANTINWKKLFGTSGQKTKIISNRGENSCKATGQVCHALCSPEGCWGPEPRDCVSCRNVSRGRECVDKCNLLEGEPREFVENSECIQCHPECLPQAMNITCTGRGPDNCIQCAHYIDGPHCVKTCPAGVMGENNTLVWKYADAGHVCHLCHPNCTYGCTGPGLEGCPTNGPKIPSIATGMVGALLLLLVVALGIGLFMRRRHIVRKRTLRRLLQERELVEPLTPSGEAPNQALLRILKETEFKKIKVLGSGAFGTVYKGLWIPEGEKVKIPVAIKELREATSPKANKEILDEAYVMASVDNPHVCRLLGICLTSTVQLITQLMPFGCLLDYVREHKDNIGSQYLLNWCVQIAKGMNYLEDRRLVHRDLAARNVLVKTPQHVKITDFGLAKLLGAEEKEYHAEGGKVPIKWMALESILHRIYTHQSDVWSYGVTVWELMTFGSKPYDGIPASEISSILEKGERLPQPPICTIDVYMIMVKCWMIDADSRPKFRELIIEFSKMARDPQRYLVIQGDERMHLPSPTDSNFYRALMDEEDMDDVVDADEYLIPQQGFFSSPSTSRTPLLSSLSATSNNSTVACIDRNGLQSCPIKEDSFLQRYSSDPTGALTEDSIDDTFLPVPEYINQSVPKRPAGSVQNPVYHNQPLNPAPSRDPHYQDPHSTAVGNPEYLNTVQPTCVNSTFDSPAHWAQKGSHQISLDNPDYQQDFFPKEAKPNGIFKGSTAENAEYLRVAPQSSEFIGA
T13 sequence (O75116 whole entry): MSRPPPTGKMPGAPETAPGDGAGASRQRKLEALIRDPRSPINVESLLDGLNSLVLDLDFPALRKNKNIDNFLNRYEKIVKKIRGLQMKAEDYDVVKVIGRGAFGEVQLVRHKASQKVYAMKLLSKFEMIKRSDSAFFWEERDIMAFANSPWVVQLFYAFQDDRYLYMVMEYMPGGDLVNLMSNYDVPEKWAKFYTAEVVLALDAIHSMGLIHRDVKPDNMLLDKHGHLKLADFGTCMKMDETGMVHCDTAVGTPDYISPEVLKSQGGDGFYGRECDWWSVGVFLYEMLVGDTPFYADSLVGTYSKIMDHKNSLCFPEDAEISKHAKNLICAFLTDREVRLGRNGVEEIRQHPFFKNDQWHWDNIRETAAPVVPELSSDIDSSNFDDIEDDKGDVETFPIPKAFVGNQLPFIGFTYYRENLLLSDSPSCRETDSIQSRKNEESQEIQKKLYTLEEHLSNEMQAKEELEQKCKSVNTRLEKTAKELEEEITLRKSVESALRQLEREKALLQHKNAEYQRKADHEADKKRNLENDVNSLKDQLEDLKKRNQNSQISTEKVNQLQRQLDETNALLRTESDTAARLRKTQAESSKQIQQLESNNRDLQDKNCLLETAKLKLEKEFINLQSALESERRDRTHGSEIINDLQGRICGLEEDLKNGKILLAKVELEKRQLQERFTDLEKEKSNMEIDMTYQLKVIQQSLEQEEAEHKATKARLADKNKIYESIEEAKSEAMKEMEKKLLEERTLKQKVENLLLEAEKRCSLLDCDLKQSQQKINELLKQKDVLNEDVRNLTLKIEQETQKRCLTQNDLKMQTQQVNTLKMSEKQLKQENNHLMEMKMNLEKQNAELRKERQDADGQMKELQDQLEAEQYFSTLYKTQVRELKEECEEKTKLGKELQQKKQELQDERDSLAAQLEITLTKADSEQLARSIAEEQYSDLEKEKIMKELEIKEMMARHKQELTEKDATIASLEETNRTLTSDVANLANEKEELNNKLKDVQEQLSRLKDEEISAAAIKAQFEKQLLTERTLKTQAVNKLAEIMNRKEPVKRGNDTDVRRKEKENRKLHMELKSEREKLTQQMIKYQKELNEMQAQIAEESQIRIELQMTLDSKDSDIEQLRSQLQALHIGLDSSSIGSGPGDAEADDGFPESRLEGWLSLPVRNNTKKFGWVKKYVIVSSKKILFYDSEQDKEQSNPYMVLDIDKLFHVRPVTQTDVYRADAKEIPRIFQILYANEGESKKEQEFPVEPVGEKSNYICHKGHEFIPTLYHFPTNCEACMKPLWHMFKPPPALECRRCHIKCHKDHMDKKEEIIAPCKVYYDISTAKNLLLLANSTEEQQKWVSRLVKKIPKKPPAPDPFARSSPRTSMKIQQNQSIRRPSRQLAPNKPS

inhibition at 1 µM (EGFR; 1 μM, mean ± S.D., read-out: % inhibition at 1 μM, EGFR(h)): 96 ± 2%
IC50 (EGFR; [3]): 43 nM
inhibition at 1 µM (EGFR (L858R); 1 μM, mean ± S.D., read-out: % inhibition at 1 μM, EGFR(L858R)(h)): 96 ± 1%
IC50 (EGFR (L858R); [3]): 17 nM
inhibition at 1 µM (VEGFR-3; 1 μM, mean ± S.D., read-out: % inhibition at 1 μM, VEGFR-3 (h)): 98%
IC50 (VEGFR-3; in vitro kinase assay): 2 nM
inhibition at 1 µM (CDK1/cyclin B (h)): 18 ± 8%
inhibition at 1 µM (CDK2/cyclin A (h)): 12 ± 8%
inhibition at 1 µM (CDK7/cyclin H/MAT1 (h)): 16 ± 5%
inhibition at 1 µM (IR (h)): 14 ± 3%
inhibition at 1 µM (LKB1 (h)): 0%
inhibition at 1 µM (PKCε (h)): 2 ± 3%
inhibition at 1 µM (PKCι (h)): 5 ± 6%
inhibition at 1 µM (PKCζ (h)): 5 ± 4%
inhibition at 1 µM (PKG1α (h)): 0%
inhibition at 1 µM (PKG1β (h)): 7 ± 1%
inhibition at 1 µM (ROCK-II (h)): 4 ± 1%
Structure (SMILES): Cc1ccc(Nc2nccc(N(C)c3ccc4[nH]ccc4c3)n2)cc1S(N)(=O)=O [MKP101]
Cytotoxicity in HUVECs (HUVECs [1]; 1 μg/mL): No cytotoxicity was observed
Cytotoxicity in HUVECs (HUVECs [1]; 5 and 10 μg/mL): significant endothelial cytotoxicity
Effect on VEGF-induced increase in tube formation (HUVECs [2]): significantly inhibited
